Article PMC9227536, “Prediction of Pharmacokinetics of IDP-73152 in Humans Using Physiologically-Based Pharmacokinetics” (Pharmaceutics, 2022)

Columns and labels:
[1] = Metabolic stability in liver microsomes, mouse; type: in vitro ADME
Method: In this study, the metabolic stability of IDP-73152 in microsomes from mice, rats, dogs, and humans, as well as rat hepatocytes, was determined. For a microsomal incubation study, the incubation mixtures, containing mouse, rat, dog, or human liver microsomes at a protein concentration of 0.5 mg/mL, 3.3 mM MgCl2, and 1.3 mM NADPH, in a 100 mM potassium phosphate buffer (pH 7.4), were preincubated for 3 min at 37 °C. In parallel, a control incubation mixture (i.e., identical composition to that of the incubation mixture without NADPH) was also prepared for comparison. The reaction was initiated by the addition of a 10 × solution of IDP-73152 (final concentration in mixtures of 1 μM) to the incubation mixtures or the control incubation mixtures. The mixtures were incubated in a shaking water bath (37 °C, 90 rpm). Aliquots (30 μL) were collected at 0, 15, 30, and 45 min from the mixture and the reaction was terminated by the addition of a 4-fold volume of ice-cold acetonitrile to the sample. The mixture was then vortexed for 5 min and centrifuged for 10 min at 10,000× g. The supernatant was collected and stored at -80 °C until the analysis. For the hepatocyte incubation study, rat hepatocytes were freshly prepared using the two-step collagenase perfusion method with slight modifications. After the isolation, cell viability during the preparation process was first determined by a trypan blue exclusion assay prior to the stability study. The preparation was considered adequate for subsequent studies if the viability was greater than 80%. When appropriate, the hepatocytes were resuspended in Williams' media E containing 10% fetal bovine serum, 1% penicillin-streptomycin, and 0.01% insulin-transferrin-selenium (i.e., 10 mg/mL insulin, 5.5 mg/mL transferrin, and 5 mg/mL selenium) at pH 7.4. The reaction was carried out with the hepatocyte suspension prepared at 1 × 10^6 cells/mL (0.5 mL) and initiated by the addition of equal volume of IDP-73152 solution (i.e., final concentration of the compound at 1 μM in 0.5 × 10^6 cells/mL of hepatocytes) to the hepatocyte suspension. […] Assuming first-order disappearance kinetics, the slope k of the logarithmically transformed IDP-73152 concentration in the sample versus time plot was determined by the linear regression analysis of the data. The total intrinsic clearance (CLint,mic, μL/min/mg protein for microsomal incubation study and CLint,hep, μL/min/million cells for hepatocytes incubation study) was then calculated using the following equations:(4) CLint, mic=k×Volume of incubation medium (μL)/Protein in incubation medium (mg) (5) CLint,hep=k×Volume of incubation (μL)/Number of cells in incubation (×10^6) The unbound intrinsic clearance, with respect to the whole liver ([…]), was then estimated for the two cases. […]

[2] = Metabolic stability in rat hepatocytes; type: in vitro ADME
Method: For the hepatocyte incubation study, rat hepatocytes were freshly prepared using the two-step collagenase perfusion method with slight modifications. After the isolation, cell viability during the preparation process was first determined by a trypan blue exclusion assay prior to the stability study. The preparation was considered adequate for subsequent studies if the viability was greater than 80%. When appropriate, the hepatocytes were resuspended in Williams' media E containing 10% fetal bovine serum, 1% penicillin-streptomycin, and 0.01% insulin-transferrin-selenium (i.e., 10 mg/mL insulin, 5.5 mg/mL transferrin, and 5 mg/mL selenium) at pH 7.4. […] Assuming first-order disappearance kinetics, the slope k of the logarithmically transformed IDP-73152 concentration in the sample versus time plot was determined by the linear regression analysis of the data. The total intrinsic clearance (CLint,mic, μL/min/mg protein for microsomal incubation study and CLint,hep, μL/min/million cells for hepatocytes incubation study) was then calculated using the following equations:(4) CLint, mic=k×Volume of incubation medium (μL)/Protein in incubation medium (mg) (5) CLint,hep=k×Volume of incubation (μL)/Number of cells in incubation (×10^6) The unbound intrinsic clearance, with respect to the whole liver ([…]), was then estimated for the two cases. […]

CC(C)(C)[C@H](NC(=O)[C@H](CC1CCCC1)CN(O)C=O)C(=O)N1CCC(NCc2cc(F)c(F)cc2F)CC1 [IDP-73152]
hepatic ER (extraction ratio) ([1]; mice, from microsomal clearance, well-stirred model): 0.102 ± 0.002 | CLu,int,H ([1]; mice, scaled up to the whole liver from microsomes): 0.539 ± 0.011 L/h | CLhep predicted at 1 μM ([1]; mouse, liver microsomes, pH 7.4, mice, read-out: CLh calculated from the CLint,mic (converted)): 22.7 mL/min/kg | microsomal CLint at 1 μM ([1]; mouse, pH 7.4, mice liver microsomes 0.5 mg/mL, 1 μM, read-out: CLint,mic): 80.1 ± 1.7 µL/min/mg | hepatocyte CLint at 1 μM ([2]; freshly isolated hepatocytes in suspension, pH 7.4, rat hepatocytes 0.5 × 10^6 cells/mL, 1 μM, read-out: CL,int,hep): 27.7 ± 3.2 µL/min/1e6 cells | CLu,int,H ([2]; rats, scaled from rat hepatocytes): 6.82 ± 0.79 L/h
